Results on one compound are retold here after patent publication US10822317B2, “Methods and compositions for wound healing” (QBiotics Limited, priority 2013, dated 2020).

The subject of this test is wounds following necrosis and sloughing of spontaneous tumours. The test is described as follows: Resolution of wounds after sloughing of spontaneous tumours treated by intratumoural injection, canine. The class given is in vivo. The conditions noted are these: for Average days from tumour slough to wound closure: Canine. The procedure:
necrosis and sloughing of spontaneous tumours that had been treated by intratumoural injection of Compound 1 (30% 1,2 propanediol formulation at either 0.5 or 1.0 mg/mL concentration) in twenty-four companion animals are summarised in Table 17.
Note that all wounds were managed as open wounds and no bandaging, dressings, lotions or concomitant medications were used in any of these cases.

Regarding `CC=C(C)C(=O)OC1C(C)C2(O)C(C3OC3(CO)C(O)C3(O)C(=O)C(C)=CC32)C2C(C)(C)C12OC(=O)C(C)CC` (stereo not drawn) [Compound 1, 12-tigloyl-13-(2-methylbutanoyl)-6,7-epoxy-4,5,9,12,13,20-hexahydroxy-1-tigliaen-3-one], the “No. of dogs: Tissue deficit at wound site, Minor” value (5 to 10% tissue deficit across the original wound area) is 0. Besides, where the note is “<5% tissue deficit across the original wound area”, the “No. of dogs: Tissue deficit at wound site, Nil or minimal” value is on record as 15. Further, where the note is “>10% tissue deficit across the original wound area”, the “No. of dogs: Tissue deficit at wound site, Substantial” value stood at 0. In addition, the “Average days from tumour slough to wound closure” value (“Average days from tumour slough” for short) (wound size class 0.25 to 9 cm^2, 7 cases) came out at 24 ± 16 days. Moreover, the “Average days from tumour slough” value (wound size class 9 to 50 cm^2, 5 cases) is recorded as 40 ± 15 days. In addition, the “Average days from tumour slough” value (wound size class >50 to 130 cm^2, 3 cases) is listed as 62 ± 18 days. Besides, the “No. of dogs: Hair regrowth on wound area, Sparse” value (Hair covers <50% of original wound area) is 7. Further, for the setting “Hair covers >50% of original wound area”, the “No. of dogs: Hair regrowth on wound area, Partial” value is 1. Further, the “No. of dogs: Hair regrowth on wound area, Full” value (Hair covers >95% of original wound area) amounted to 12. For the same compound, the “No. of dogs: Scarring & skin thickening, Minor” value (Localised scar covering <10% of original wound area) came to 1. Further, the “No. of dogs: Scarring & skin thickening, Substantial” value (Scarring covering >10% of original wound area) is recorded as 1. Moreover, the “No. of dogs: Scarring & skin thickening, Nil or minimal” value (Scarring not obvious visually or by touch) worked out at 13. For the setting “healed wound site”, the “No. of dogs: Change in hair colour, No” value came to 15; the “No. of dogs: Change in hair colour, Yes” value was found to be 0; the “No. of dogs: Skin pigmentation, Hyperpigmentation” value came out at 0; the “No. of dogs: Skin pigmentation, Hypopigmentation” value is 3. Further, where the note is “healed wound site”, the “No. of dogs: Skin pigmentation, Normal” value was 11 and the “No. of dogs: Skin pigmentation, Patchy” value is given as 1.
